Earlier results as cited in US20130178535A1, “Acetaminophen Composition” (B. Braun Melsungen AG, priority 2010, published 2013).

Compound: CC(=O)Nc1ccc(O)cc1 [paracetamol, N-(4-hydroxyphenyl)ethanamide]
- pH at which breakdown (hydrolysis) in aqueous solution is minimal: ~6
